Here are results for 19 molecules from ChEMBL document CHEMBL1201862, “PubChem BioAssay data set” (2004).

Some test systems named below: MDA-N; DLD-1; DMS-273; RXF 631; SNB-78; DMS-114; M19-MEL; HOP-18; LXFL 529.
Experiment in all cases: NCI-60 cell line screen, 48 h

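Each compound was tested at five concentrations against cells in 96-well plates for 48 hours. Abbreviation: GI50, concentration required for 50% inhibition of growth.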 Active and inactive are the calls of the source. Rule as the data show it: active = GI50 up to about 1.1 µM and inactive = higher.

`N=C(N)SCc1cccc2c(=O)cc(-c3ccccc3)oc12`: the GI50 is 6.53 µM (inactive) in the assay on MDA-N; 7.59 µM (inactive) in the assay with DLD-1; 7.14 µM (inactive) in the assay on DMS-273; 9.95 µM (inactive) in the assay with RXF 631; 6.32 µM (inactive) in the assay with SNB-78; 6.47 µM (inactive) in the assay with DMS-114. The GI50 in the assay with M19-MEL is 13.2 µM (inactive).
In the case of `CCOC(=O)Nc1nc2cc(Cn3cccc3)ccc2[nH]1`, the GI50 in the assay on MDA-N is 0.157 µM (active); with DLD-1 it was 3.93 µM (inactive); in the assay with DMS-273, 3.66 µM (inactive); in the assay on HOP-18, 4.52 µM (inactive); in the assay with RXF 631, > 22.3 µM (inactive); with LXFL 529 it was 4.16 µM (inactive). The GI50 is 8.99 µM (inactive) with SNB-78, 4.9 µM (inactive) in the assay on DMS-114 and 6.37 µM (inactive) with M19-MEL.
Regarding `CCCCN(CCCC)CC(C(C)=O)C(c1ccccc1)c1c(O)c2ccccc2oc1=O` (configuration not stated), the GI50 with DLD-1, in the assay on DMS-273, in the assay on HOP-18, in the assay with RXF 631, in the assay on LXFL 529 and with SNB-78 was > 100 µM (inactive) in each case. Further, the results for the GI50 in the assay on DMS-114 and in the assay with M19-MEL were 91 µM (inactive) and > 100 µM (inactive), respectively.
Regarding `C=C(CN(C)C)C(=O)c1ccc(Oc2ccccc2)cc1`, the GI50 in the assay on MDA-N was 3.02 µM (inactive); in the assay with DLD-1, 2.22 µM (inactive); in the assay on DMS-273, 23.6 µM (inactive); in the assay on HOP-18, 6.87 µM (inactive); in the assay on RXF 631, 19.3 µM (inactive); in the assay with LXFL 529, 2.2 µM (inactive). For the same molecule, the GI50 was 16.3 µM (inactive) in the assay on SNB-78 and 4.25 µM (inactive) with M19-MEL.
As for `Cc1cc(NCCCCCCNc2cc(C)nc3ccc(Cl)cc23)c2cc(Cl)ccc2n1`, the GI50 in the assay on DLD-1 is 16.8 µM (inactive); in the assay on DMS-273, 20.4 µM (inactive); in the assay on RXF 631, > 100 µM (inactive); with LXFL 529, > 100 µM (inactive); in the assay on SNB-78 it was 22.7 µM (inactive); with DMS-114 it was 18.9 µM (inactive). In the assay with M19-MEL, the GI50 was 21.4 µM (inactive).
`COc1cccc(NC(=O)C(=O)C(C(C)=O)c2nc3ccc(Cl)cc3nc2O)c1` (configuration not stated): the GI50 in the assay on DLD-1, in the assay on DMS-273, in the assay on HOP-18, in the assay with RXF 631, in the assay with LXFL 529 and in the assay with SNB-78 was > 100 µM (inactive) each time. Moreover, the GI50 with DMS-114 and in the assay on M19-MEL was > 100 µM (inactive) each time.
For `CC(=O)OCC1OC(n2cc(F)c(=O)[nH]c2=O)C(NC(=O)N(CCCl)N=O)C(OC(C)=O)C1OC(C)=O` (configuration not stated), the GI50 is > 100 µM (inactive) with DLD-1; > 100 µM (inactive) with DMS-273; > 100 µM (inactive) with HOP-18; > 100 µM (inactive) in the assay on LXFL 529; > 100 µM (inactive) in the assay with SNB-78; 81.3 µM (inactive) in the assay with DMS-114. The GI50 with M19-MEL was > 100 µM (inactive).
As to `CCN(CC)C(=O)COc1ccc(Br)cc1Br`, the GI50 in the assay with DLD-1, in the assay with DMS-273, in the assay on HOP-18, with RXF 631, with LXFL 529 and with SNB-78 was > 100 µM (inactive) in each case. The GI50 in the assay with DMS-114 and in the assay with M19-MEL was > 100 µM (inactive) throughout.
In the case of `CCOC(=O)C1=NC(c2ccccc2)(c2ccccc2)OC1=C(Cl)Cl`, the GI50 in the assay with DLD-1 is 80.7 µM (inactive); in the assay with HOP-18 it was > 100 µM (inactive); in the assay on RXF 631 it was 50.9 µM (inactive); in the assay with LXFL 529 it was 65.5 µM (inactive); in the assay with SNB-78, 96.4 µM (inactive); in the assay with M19-MEL, 29 µM (inactive).
Consider `O=C(NC(=O)c1cn(CCN(CCO)C(=O)NCCCCCCNC(=O)N(CCO)CCn2cc(C(=O)NC(=O)OCc3ccccc3)c(=O)[nH]c2=O)c(=O)[nH]c1=O)OCc1ccccc1`, for which the GI50 with DLD-1, in the assay with DMS-273, in the assay with HOP-18, with RXF 631, in the assay with SNB-78 and in the assay with DMS-114 was > 100 µM (inactive) throughout. In addition, the GI50 in the assay with M19-MEL is > 100 µM (inactive).
Turning to `Nc1ncnc2c1nnn2C1C=C(CO)C(O)C1O` (configuration not stated), the GI50 with DLD-1 was 35.2 µM (inactive); with DMS-273, 44 µM (inactive); in the assay on HOP-18 it was 95.3 µM (inactive); in the assay on LXFL 529, > 100 µM (inactive); in the assay on SNB-78 it was > 86.7 µM (inactive); in the assay on DMS-114 it was 44.5 µM (inactive). The GI50 in the assay with M19-MEL is > 79.1 µM (inactive).
`CC(C)(c1ccc(C=O)o1)c1ccc(C(C)(C)c2ccc(C=O)o2)o1`: the GI50 in the assay with DMS-273, in the assay with HOP-18, with RXF 631, in the assay on LXFL 529 and in the assay with SNB-78 was > 100 µM (inactive) each time.
As for `N#CC(C#N)C(c1ccccc1)c1ccccc1`, the GI50 in the assay on DLD-1, in the assay with DMS-273, in the assay with HOP-18, in the assay on RXF 631, in the assay on LXFL 529 and with SNB-78 was > 100 µM (inactive) each time. Also, the GI50 with DMS-114 is 70.8 µM (inactive).
`O=C1CCC(=O)c2sccc2N1`: the GI50 in the assay on DLD-1, with DMS-273, with HOP-18, in the assay on LXFL 529, in the assay on SNB-78 and with DMS-114 was > 100 µM (inactive) in each case. In the assay on M19-MEL, the GI50 is > 100 µM (inactive).
`CCOc1ccc(NC(=O)C2=C(C)NC(C)=C(C(=O)Nc3ccc(OCC)cc3)C2c2ccccc2)cc1`: the GI50 with DLD-1 is 97.7 µM (inactive); in the assay with DMS-273, > 100 µM (inactive); with RXF 631, > 100 µM (inactive); in the assay with LXFL 529 it was 51.3 µM (inactive); with SNB-78 it was > 100 µM (inactive); with DMS-114 it was 44.2 µM (inactive). In addition, the GI50 with M19-MEL is > 100 µM (inactive).
Consider `N#CCc1ccc(C(C#N)/C(CCCC(=O)Nc2cccc([N+](=O)[O-])c2)=N/NC(N)=S)cc1` (configuration not stated), for which the GI50 is 87.5 µM (inactive) with DLD-1; > 100 µM (inactive) with DMS-273; > 100 µM (inactive) with HOP-18; 86.5 µM (inactive) with RXF 631; 92 µM (inactive) in the assay with LXFL 529; 57.7 µM (inactive) in the assay with SNB-78. Besides, in the assay on DMS-114, the GI50 was 99.1 µM (inactive).
On to `O=C1C(Br)=C[C@H]2C3C=CC(Br)(C3=O)[C@@H]12` (some centres not stated), for which the GI50 is 7.57 µM (inactive) in the assay on DLD-1; 12.8 µM (inactive) with DMS-273; 49.4 µM (inactive) in the assay with HOP-18; 14.4 µM (inactive) with RXF 631; 10.2 µM (inactive) with LXFL 529; 94.8 µM (inactive) in the assay with SNB-78. In addition, the GI50 is 14 µM (inactive) in the assay on DMS-114 and 11.8 µM (inactive) with M19-MEL.
Consider `CCCn1c(SCC)c2cc3cc4ccccc4cc3cc2c1-c1nc(F)nc(F)n1`, for which the GI50 in the assay with DMS-273, with RXF 631, with LXFL 529, in the assay with SNB-78, with DMS-114 and in the assay on M19-MEL was > 100 µM (inactive) each time.
For the molecule `CC1(C)CCC[C@@]2(C)C1CCC1(C)C(CCc3ccoc3)/C(=C/OS(=O)(=O)O)CCC12` (some centres not stated), the GI50 in the assay with DLD-1 was 34.5 µM (inactive); in the assay on DMS-273 it was > 100 µM (inactive); in the assay with HOP-18, > 100 µM (inactive); with RXF 631, > 100 µM (inactive); with LXFL 529 it was 50 µM (inactive); with SNB-78, 45.2 µM (inactive). In addition, the GI50 in the assay on DMS-114 was 34.6 µM (inactive); in the assay with M19-MEL it was > 100 µM (inactive).
